Results as given in ChEMBL document CHEMBL4507296 (2021).

Legend:
[1] = biological target: Serine/threonine-protein kinase 38 (Homo sapiens) (UniProt Q15208); conditions: Compound concentration 1000.0 nM
[2] = biological target: G protein-coupled receptor kinase 4 (Homo sapiens) (UniProt P32298); conditions: Compound concentration 1000.0 nM
[3] = biological target: Serine/threonine-protein kinase D1 (Homo sapiens) (UniProt Q15139); conditions: Compound concentration 1000.0 nM
[4] = biological target: Phosphatidylinositol 4,5-bisphosphate 3-kinase catalytic subunit gamma isoform (Homo sapiens) (UniProt P48736); conditions: Compound concentration 1000.0 nM
Sequence of Phosphatidylinositol 4,5-bisphosphate 3-kinase catalytic subunit gamma isoform (Homo sapiens) (P48736 whole entry, looked up, canonical isoform): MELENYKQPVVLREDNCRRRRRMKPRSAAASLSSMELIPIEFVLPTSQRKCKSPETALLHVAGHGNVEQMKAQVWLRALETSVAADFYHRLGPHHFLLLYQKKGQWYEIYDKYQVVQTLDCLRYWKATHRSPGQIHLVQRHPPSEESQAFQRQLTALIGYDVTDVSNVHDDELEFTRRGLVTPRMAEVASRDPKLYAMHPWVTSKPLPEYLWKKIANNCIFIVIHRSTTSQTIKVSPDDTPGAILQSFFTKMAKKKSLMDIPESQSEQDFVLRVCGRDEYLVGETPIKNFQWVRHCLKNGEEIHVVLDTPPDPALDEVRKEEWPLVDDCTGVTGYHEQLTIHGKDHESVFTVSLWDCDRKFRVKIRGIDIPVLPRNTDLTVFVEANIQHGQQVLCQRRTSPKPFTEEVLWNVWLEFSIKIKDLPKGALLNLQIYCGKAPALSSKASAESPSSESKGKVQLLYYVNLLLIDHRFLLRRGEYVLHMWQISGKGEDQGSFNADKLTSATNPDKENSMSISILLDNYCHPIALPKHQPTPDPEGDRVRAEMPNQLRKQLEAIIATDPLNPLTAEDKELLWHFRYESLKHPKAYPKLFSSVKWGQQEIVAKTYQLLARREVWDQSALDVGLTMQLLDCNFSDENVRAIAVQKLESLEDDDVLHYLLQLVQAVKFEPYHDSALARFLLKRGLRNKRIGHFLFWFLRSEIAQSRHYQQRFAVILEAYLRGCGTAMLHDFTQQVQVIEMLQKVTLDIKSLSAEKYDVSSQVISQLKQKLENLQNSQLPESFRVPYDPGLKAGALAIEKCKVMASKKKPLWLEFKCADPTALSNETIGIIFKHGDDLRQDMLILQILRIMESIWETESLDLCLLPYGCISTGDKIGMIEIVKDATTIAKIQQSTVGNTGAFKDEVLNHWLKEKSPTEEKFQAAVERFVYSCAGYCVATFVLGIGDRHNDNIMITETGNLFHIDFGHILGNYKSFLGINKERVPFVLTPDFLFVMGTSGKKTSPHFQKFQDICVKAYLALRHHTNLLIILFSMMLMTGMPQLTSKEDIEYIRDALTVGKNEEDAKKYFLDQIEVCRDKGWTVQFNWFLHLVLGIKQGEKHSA

[5] = biological target: Cyclin-dependent kinase-like 3 (Homo sapiens) (UniProt Q8IVW4); conditions: Compound concentration 1000.0 nM
[6] = biological target: Receptor tyrosine-protein kinase erbB-4 (Homo sapiens) (UniProt Q15303); conditions: Compound concentration 1000.0 nM
[7] = biological target: Serine/threonine-protein kinase TNNI3K (Homo sapiens) (UniProt Q59H18); conditions: Compound concentration 1000.0 nM
[8] = biological target: Cyclin-dependent kinase 11B (Homo sapiens) (UniProt P21127); conditions: Compound concentration 1000.0 nM
[9] = system: Epidermal growth factor receptor (Homo sapiens), P00533 [T790M]; conditions: Compound concentration 1000.0 nM
[10] = system: Epidermal growth factor receptor (Homo sapiens), P00533 [L861Q]; conditions: Compound concentration 1000.0 nM
[11] = biological target: Mitogen-activated protein kinase kinase kinase 13 (Homo sapiens) (UniProt O43283); conditions: Compound concentration 1000.0 nM
[12] = system: Receptor-type tyrosine-protein kinase FLT3 (Homo sapiens), P36888 [D835V]; conditions: Compound concentration 1000.0 nM
[13] = biological target: D(2) dopamine receptor (Homo sapiens) (UniProt P14416); conditions: Compound concentration 10.0 uM
[14] = biological target: Cyclin-dependent kinase 9 (Homo sapiens) (UniProt P50750); conditions: Compound concentration 1000.0 nM
[15] = biological target: Ephrin type-A receptor 8 (Homo sapiens) (UniProt P29322); conditions: Compound concentration 1000.0 nM
Sequence of Ephrin type-A receptor 8 (Homo sapiens) (P29322 whole entry): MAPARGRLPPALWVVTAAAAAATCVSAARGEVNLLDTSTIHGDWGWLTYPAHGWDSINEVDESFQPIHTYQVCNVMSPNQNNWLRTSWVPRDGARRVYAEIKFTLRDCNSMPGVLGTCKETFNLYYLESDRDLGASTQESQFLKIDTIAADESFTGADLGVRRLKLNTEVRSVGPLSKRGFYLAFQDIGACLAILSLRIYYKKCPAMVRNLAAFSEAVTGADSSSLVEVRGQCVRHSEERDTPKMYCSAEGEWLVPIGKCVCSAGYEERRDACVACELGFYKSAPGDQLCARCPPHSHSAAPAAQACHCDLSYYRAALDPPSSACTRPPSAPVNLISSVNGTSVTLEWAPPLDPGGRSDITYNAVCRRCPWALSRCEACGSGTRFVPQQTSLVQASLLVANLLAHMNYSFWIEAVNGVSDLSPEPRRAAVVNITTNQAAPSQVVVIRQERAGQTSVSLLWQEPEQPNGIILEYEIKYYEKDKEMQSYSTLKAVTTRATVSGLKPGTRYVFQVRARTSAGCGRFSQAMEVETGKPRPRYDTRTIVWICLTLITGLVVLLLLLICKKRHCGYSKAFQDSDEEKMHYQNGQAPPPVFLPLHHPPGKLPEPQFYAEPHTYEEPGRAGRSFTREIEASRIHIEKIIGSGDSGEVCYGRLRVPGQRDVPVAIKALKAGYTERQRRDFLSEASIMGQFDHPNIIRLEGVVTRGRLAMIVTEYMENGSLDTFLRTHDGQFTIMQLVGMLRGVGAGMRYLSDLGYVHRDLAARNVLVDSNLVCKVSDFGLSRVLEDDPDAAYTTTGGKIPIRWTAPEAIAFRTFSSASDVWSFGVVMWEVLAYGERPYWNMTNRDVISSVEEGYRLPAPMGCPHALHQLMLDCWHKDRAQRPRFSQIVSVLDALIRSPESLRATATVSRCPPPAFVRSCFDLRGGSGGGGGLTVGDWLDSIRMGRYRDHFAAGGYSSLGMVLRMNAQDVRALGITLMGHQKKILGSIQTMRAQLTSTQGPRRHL

[16] = biological target: RAC-gamma serine/threonine-protein kinase (Homo sapiens) (UniProt Q9Y243); conditions: Compound concentration 1000.0 nM
[17] = biological target: cAMP-dependent protein kinase catalytic subunit PRKX (Homo sapiens) (UniProt P51817); conditions: Compound concentration 1000.0 nM
[18] = biological target: Calcium/calmodulin-dependent protein kinase type IV (Homo sapiens) (UniProt Q16566); conditions: Compound concentration 1000.0 nM
[19] = biological target: Calcium/calmodulin-dependent protein kinase kinase 1 (Homo sapiens) (UniProt Q8N5S9); conditions: Compound concentration 1000.0 nM
[20] = biological target: Ribosomal protein S6 kinase alpha-1 (Homo sapiens) (UniProt Q15418); conditions: Compound concentration 1000.0 nM
[21] = biological target: Serine/threonine-protein kinase BRSK1 (Homo sapiens) (UniProt Q8TDC3); conditions: Compound concentration 1000.0 nM
[22] = biological target: Serine/threonine-protein kinase PAK 3 (Homo sapiens) (UniProt O75914); conditions: Compound concentration 1000.0 nM
Sequence of Serine/threonine-protein kinase PAK 3 (Homo sapiens) (O75914 whole entry, looked up): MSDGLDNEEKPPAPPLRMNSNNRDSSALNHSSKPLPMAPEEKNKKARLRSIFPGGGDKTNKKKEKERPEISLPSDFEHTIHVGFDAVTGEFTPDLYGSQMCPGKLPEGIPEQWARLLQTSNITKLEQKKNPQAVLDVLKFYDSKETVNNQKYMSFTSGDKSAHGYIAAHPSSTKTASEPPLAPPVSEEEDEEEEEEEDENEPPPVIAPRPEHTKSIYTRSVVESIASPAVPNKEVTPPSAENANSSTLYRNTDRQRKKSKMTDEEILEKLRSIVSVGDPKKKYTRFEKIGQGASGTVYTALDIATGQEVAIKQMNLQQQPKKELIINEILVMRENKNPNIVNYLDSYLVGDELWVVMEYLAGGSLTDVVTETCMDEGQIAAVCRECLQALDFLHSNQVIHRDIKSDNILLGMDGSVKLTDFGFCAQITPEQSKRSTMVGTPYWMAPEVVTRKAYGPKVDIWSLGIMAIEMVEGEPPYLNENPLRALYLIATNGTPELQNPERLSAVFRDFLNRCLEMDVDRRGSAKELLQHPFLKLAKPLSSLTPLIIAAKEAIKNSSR

[23] = biological target: Protein kinase C eta type (Homo sapiens) (UniProt P24723); conditions: Compound concentration 1000.0 nM
[24] = biological target: Bone morphogenetic protein receptor type-1B (Homo sapiens) (UniProt O00238); conditions: Compound concentration 1000.0 nM
[25] = biological target: GABA-A receptor; anion channel (Rattus norvegicus) (UniProt O09028+P15431+P18506+P18508+P19969+P20236+P23574+P23576+P28471+P28473+P30191+P62813+P63079+P63138+Q91ZM7+Q9ES14); conditions: Compound concentration 10.0 uM
[26] = biological target: Ephrin type-A receptor 3 (Homo sapiens) (UniProt P29320); conditions: Compound concentration 1000.0 nM
[27] = biological target: Homeodomain-interacting protein kinase 1 (Homo sapiens) (UniProt Q86Z02); conditions: Compound concentration 1000.0 nM
[28] = biological target: Ephrin type-A receptor 5 (Homo sapiens) (UniProt P54756); conditions: Compound concentration 1000.0 nM
[29] = biological target: Serine/threonine-protein kinase SIK3 (Homo sapiens) (UniProt Q9Y2K2); conditions: Compound concentration 1000.0 nM
[30] = biological target: Serine/threonine-protein kinase SIK1 (Homo sapiens) (UniProt P57059); conditions: Compound concentration 1000.0 nM
Sequence of Serine/threonine-protein kinase SIK1 (Homo sapiens) (P57059 whole entry, canonical isoform): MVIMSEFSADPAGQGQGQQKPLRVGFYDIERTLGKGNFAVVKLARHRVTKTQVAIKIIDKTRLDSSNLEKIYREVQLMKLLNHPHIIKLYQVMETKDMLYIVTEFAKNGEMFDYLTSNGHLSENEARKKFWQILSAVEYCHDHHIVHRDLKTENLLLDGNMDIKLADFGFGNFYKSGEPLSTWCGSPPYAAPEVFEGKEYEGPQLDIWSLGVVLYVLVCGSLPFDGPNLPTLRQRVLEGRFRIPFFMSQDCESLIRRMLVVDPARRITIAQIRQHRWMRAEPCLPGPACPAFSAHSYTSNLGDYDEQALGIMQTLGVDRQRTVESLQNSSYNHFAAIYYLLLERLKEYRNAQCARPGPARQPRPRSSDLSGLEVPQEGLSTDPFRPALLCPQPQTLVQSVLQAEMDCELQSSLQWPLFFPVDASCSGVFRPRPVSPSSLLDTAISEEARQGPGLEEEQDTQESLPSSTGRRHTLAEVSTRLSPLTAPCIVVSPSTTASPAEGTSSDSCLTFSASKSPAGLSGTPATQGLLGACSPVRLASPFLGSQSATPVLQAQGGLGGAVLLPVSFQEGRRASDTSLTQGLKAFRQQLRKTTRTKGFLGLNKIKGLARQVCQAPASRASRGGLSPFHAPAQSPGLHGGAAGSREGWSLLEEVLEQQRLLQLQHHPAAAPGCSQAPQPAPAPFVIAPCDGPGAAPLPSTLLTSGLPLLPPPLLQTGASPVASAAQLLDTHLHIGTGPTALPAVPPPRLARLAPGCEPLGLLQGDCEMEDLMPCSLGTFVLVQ

[31] = biological target: Casein kinase I isoform gamma-3 (Homo sapiens) (UniProt Q9Y6M4); conditions: Compound concentration 1000.0 nM
Sequence of Casein kinase I isoform gamma-3 (Homo sapiens) (Q9Y6M4 whole entry, looked up, canonical isoform): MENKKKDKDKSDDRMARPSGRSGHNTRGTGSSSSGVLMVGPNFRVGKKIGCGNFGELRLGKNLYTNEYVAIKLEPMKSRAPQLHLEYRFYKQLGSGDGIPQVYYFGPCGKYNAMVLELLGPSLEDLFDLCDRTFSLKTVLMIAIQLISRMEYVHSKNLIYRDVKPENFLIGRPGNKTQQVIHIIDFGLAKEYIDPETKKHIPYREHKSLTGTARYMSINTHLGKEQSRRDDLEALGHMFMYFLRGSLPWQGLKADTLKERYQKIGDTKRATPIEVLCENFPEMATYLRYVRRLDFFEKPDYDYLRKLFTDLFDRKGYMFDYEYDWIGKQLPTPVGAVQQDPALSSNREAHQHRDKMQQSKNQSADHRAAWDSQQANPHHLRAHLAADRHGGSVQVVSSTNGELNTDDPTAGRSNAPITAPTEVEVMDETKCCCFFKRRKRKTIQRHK

[32] = biological target: Ephrin type-A receptor 1 (Homo sapiens) (UniProt P21709); conditions: Compound concentration 1000.0 nM
[33] = biological target: Serine/threonine-protein kinase ULK2 (Homo sapiens) (UniProt Q8IYT8); conditions: Compound concentration 1000.0 nM
[34] = biological target: Serine/threonine-protein kinase 3 (Homo sapiens) (UniProt Q13188); conditions: Compound concentration 1000.0 nM
[35] = biological target: Tyrosine-protein kinase HCK (Homo sapiens) (UniProt P08631); conditions: Compound concentration 1000.0 nM
[36] = system: ALK tyrosine kinase receptor (Homo sapiens), Q9UM73 [C1156Y]; conditions: Compound concentration 1000.0 nM
[37] = biological target: Tyrosine-protein kinase ABL2 (Homo sapiens) (UniProt P42684); conditions: Compound concentration 1000.0 nM
[38] = biological target: Serine/threonine-protein kinase MARK2 (Homo sapiens) (UniProt Q7KZI7); conditions: Compound concentration 1000.0 nM
[39] = biological target: Sodium-dependent serotonin transporter (Homo sapiens) (UniProt P31645); conditions: Compound concentration 10.0 uM
[40] = biological target: Protein-tyrosine kinase 2-beta (Homo sapiens) (UniProt Q14289); conditions: Compound concentration 1000.0 nM
[41] = biological target: Dual specificity mitogen-activated protein kinase kinase 2 (Homo sapiens) (UniProt P36507); conditions: Compound concentration 1000.0 nM
[42] = biological target: Muscarinic acetylcholine receptor M3 (Homo sapiens) (UniProt P20309); conditions: Compound concentration 10.0 uM
[43] = biological target: Sodium-dependent noradrenaline transporter (Homo sapiens) (UniProt P23975); conditions: Compound concentration 10.0 uM
Sequence of Sodium-dependent noradrenaline transporter (Homo sapiens) (P23975 whole entry): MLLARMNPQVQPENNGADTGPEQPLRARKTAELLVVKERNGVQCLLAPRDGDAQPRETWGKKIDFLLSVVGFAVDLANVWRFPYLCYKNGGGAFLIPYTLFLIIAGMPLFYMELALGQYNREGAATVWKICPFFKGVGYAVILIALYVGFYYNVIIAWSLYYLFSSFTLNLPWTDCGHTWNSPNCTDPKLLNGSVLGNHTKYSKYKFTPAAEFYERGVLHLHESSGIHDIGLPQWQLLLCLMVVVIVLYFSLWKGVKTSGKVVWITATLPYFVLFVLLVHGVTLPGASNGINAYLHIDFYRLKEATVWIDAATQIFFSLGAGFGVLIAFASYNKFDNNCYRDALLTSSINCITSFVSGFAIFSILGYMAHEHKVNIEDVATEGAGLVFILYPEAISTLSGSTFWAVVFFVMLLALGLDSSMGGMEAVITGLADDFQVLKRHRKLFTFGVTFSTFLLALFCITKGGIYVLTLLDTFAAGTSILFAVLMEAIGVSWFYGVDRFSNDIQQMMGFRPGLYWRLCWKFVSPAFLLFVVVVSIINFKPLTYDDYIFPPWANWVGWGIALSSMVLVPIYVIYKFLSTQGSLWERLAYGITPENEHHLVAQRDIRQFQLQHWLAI

[44] = biological target: Homeodomain-interacting protein kinase 3 (Homo sapiens) (UniProt Q9H422); conditions: Compound concentration 1000.0 nM

Sequence of Serine/threonine-protein kinase 38 (Homo sapiens) (Q15208 2-465 limits assumed): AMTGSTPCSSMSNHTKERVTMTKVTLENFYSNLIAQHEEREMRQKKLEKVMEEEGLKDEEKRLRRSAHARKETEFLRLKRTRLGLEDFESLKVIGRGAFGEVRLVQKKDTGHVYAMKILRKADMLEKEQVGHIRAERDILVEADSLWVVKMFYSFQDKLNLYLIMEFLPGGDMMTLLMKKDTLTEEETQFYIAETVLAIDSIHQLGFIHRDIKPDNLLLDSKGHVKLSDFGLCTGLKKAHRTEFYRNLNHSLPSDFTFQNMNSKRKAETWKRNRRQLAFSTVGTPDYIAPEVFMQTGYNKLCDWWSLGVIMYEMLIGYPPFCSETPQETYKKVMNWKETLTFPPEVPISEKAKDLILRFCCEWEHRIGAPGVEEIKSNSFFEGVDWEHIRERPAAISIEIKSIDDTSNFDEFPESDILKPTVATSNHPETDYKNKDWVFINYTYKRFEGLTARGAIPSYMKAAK

C[C@H](c1ccc(F)cc1)N(Cc1cccc(C(=O)O)c1)C(=O)c1cnc2ccccc2c1 [PF-05105679]
inactive: residual activity [1] 100% | residual activity [2] 100% | residual activity [3] 100% | residual activity [4] 100% | residual activity [5] 64% | residual activity [6] 94% | residual activity [7] 97% | residual activity [8] 84% | residual activity [9] 100% | residual activity [10] 100% | residual activity [11] 75% | residual activity [12] 98% | inhibition [13] 7.61% | residual activity [14] 89% | residual activity [15] 76% | residual activity [16] 100% | residual activity [17] 100% | residual activity [18] 100% | residual activity [19] 100% | residual activity [20] 100% | residual activity [21] 100% | residual activity [22] 96% | residual activity [23] 75% | residual activity [24] 95% | inhibition [25] 20.8% | residual activity [26] 85% | residual activity [27] 100% | residual activity [28] 98% | residual activity [29] 80% | residual activity [30] 90% | residual activity [31] 100% | residual activity [32] 100% | residual activity [33] 81% | residual activity [34] 100% | residual activity [35] 88% | residual activity [36] 69% | residual activity [37] 82% | residual activity [38] 80% | inhibition [39] 23.4% | residual activity [40] 100% | residual activity [41] 100% | inhibition [42] -7.68% | inhibition [43] 2.04% | residual activity [44] 100%
